Key:
Test in all cases: relative viability (nuclei count vs DMSO), 5 days (fraction); higher = more cells survive
XMD14-99 + Dasatinib = compound: CN1CCN(CC1)C2=CC(=C(C=C2)NC3=NC(=C(S3)C(=O)C4=C(C=CC=C4Cl)Cl)N)OC [XMD14-99] + Cc1nc(Nc2ncc(C(=O)Nc3c(C)cccc3Cl)s2)cc(N2CCN(CCO)CC2)n1 [Dasatinib] (partner 0.075 µM)
How it was run: (§1)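 Each reported value is a median over duplicate plates. It expresses relative viability: treated-well nuclei count divided by vehicle-well nuclei count. Lung cancer cell lines in 1536-well plates were dosed by pin tool a day after seeding, alone with one drug or with a fixed anchor-drug dose plus five library-drug doses (not always all listed) in √10 steps, and nuclei were counted after 5 days.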

AZD1208 + Foretinib = compound: N[C@@H]1CCCN(c2c(/C=C3\SC(=O)NC3=O)cccc2-c2ccccc2)C1 [AZD1208] + COc1cc2c(Oc3ccc(NC(=O)C4(C(=O)Nc5ccc(F)cc5)CC4)cc3F)ccnc2cc1OCCCN1CCOCC1 [Foretinib] (partner 0.25 µM)
How it was run: as §1

AZD1208 + Crizotinib = compound: N[C@@H]1CCCN(c2c(/C=C3\SC(=O)NC3=O)cccc2-c2ccccc2)C1 [AZD1208] + C[C@@H](Oc1cc(-c2cnn(C3CCNCC3)c2)cnc1N)c1c(Cl)ccc(F)c1Cl [Crizotinib] (partner 1 µM)
How it was run: as §1

XMD14-99 + Alpelisib = compound: CN1CCN(CC1)C2=CC(=C(C=C2)NC3=NC(=C(S3)C(=O)C4=C(C=CC=C4Cl)Cl)N)OC [XMD14-99] + Cc1nc(NC(=O)N2CCC[C@H]2C(N)=O)sc1-c1ccnc(C(C)(C)C(F)(F)F)c1 [Alpelisib] (partner 2 µM)
How it was run: as §1

| Cell Line | relative viability (XMD14-99 + Dasatinib; first compound 0.08 µM) | relative viability (XMD14-99 + Dasatinib; first compound 0.8 µM) | relative viability (XMD14-99 + Dasatinib; first compound 2.53 µM) | relative viability (XMD14-99 + Dasatinib; first compound 8 µM) | relative viability (AZD1208 + Foretinib; first compound 0.08 µM) | relative viability (AZD1208 + Foretinib; first compound 0.253 µM) | relative viability (AZD1208 + Foretinib; first compound 0.8 µM) | relative viability (AZD1208 + Foretinib; first compound 2.53 µM) | relative viability (AZD1208 + Foretinib; first compound 8 µM) | relative viability (AZD1208 + Crizotinib; first compound 0.08 µM) | relative viability (AZD1208 + Crizotinib; first compound 0.253 µM) | relative viability (AZD1208 + Crizotinib; first compound 2.53 µM) | relative viability (AZD1208 + Crizotinib; first compound 8 µM) | relative viability (XMD14-99 + Alpelisib; first compound 0.08 µM) | relative viability (XMD14-99 + Alpelisib; first compound 0.8 µM) | relative viability (XMD14-99 + Alpelisib; first compound 2.53 µM) | relative viability (XMD14-99 + Alpelisib; first compound 8 µM) | relative viability (AZD1208 + Crizotinib; first compound 0.8 µM) |
| --- | --- | --- | --- | --- | --- | --- | --- | --- | --- | --- | --- | --- | --- | --- | --- | --- | --- | --- |
| NCI-H661 | 0.976 | 0.86 | 0.828 | 0.627 | 0.979 | 1.15 | 1.04 | 0.994 | 0.951 | 1.02 | 1 | 1 | 1.08 | 0.798 | 0.564 | 0.594 | 0.356 |  |
| NCI-H727 | 0.322 | 0.273 | 0.309 | 0.23 | 0.843 | 0.938 | 0.737 | 0.533 | 0.781 | 0.795 | 0.863 | 0.789 | 0.703 | 0.553 | 0.513 | 0.447 | 0.407 | 0.819 |
| NCI-H838 | 0.303 | 0.324 | 0.245 | 0.216 | 1.03 | 1 | 0.939 | 1.02 | 0.946 | 0.967 | 0.806 | 0.843 | 0.758 | 1 | 0.928 | 0.904 | 0.604 | 0.892 |
| NCI-H1355 | 0.777 | 0.702 | 0.655 | 0.476 | 0.973 | 1 | 0.878 | 0.84 | 0.784 | 0.974 | 1.09 | 1.06 | 0.916 | 0.928 | 0.893 | 0.68 | 0.657 | 0.997 |
| NCI-H1437 | 0.437 | 0.457 | 0.35 | 0.234 | 1.31 | 1.17 | 1.36 | 1.42 | 1.42 | 0.979 | 0.961 | 0.998 | 1.04 | 0.881 | 0.804 | 0.787 | 0.671 | 1.03 |
| NCI-H1563 | 0.452 | 0.464 | 0.449 | 0.447 | 1.07 | 1.02 | 0.919 | 0.994 | 0.908 | 0.877 | 0.81 | 0.924 | 0.8 | 0.85 | 0.894 | 0.957 | 0.869 | 0.928 |
| NCI-H1651 | 0.565 | 0.435 | 0.368 | 0.257 | 0.637 | 0.827 | 0.665 | 0.768 | 0.588 | 0.899 | 0.918 | 0.835 | 0.81 | 0.841 | 0.836 | 1.09 | 0.917 | 0.83 |
| NCI-H1666 | 0.826 | 0.803 | 0.743 | 0.59 | 0.906 | 1 | 0.953 | 0.954 | 0.975 | 1.06 | 0.934 | 0.905 | 1.03 | 0.866 | 0.94 | 0.805 | 0.699 | 0.837 |
| NCI-H1734 | 0.394 | 0.448 | 0.481 | 0.423 | 0.773 | 0.814 | 0.738 | 0.755 | 0.56 | 0.683 | 0.649 | 0.528 | 0.464 | 0.659 | 0.704 | 0.738 | 0.584 | 0.504 |

— the supplement of paper PMC10307832
